Here are results for 20 sequences from patent US20050069544A1, “Pharmaceutical composition and a method of treatment” (priority 1998, published 2005).

Entries after “also recorded” stand apart in the source; their conditions may differ.

The subject of one assay is PBMC from RhD alloimmunised donors. Briefly: Cell proliferation assay (3H-thymidine) of PBMC from RhD alloimmunised donors stimulated with RhD peptides. Format: cell-based, human. The following applies: peptide 20 μg/ml, 5 days. As to the method: Five complete panels of 68 15-mer peptides, with 5 or 10 amino acid overlaps, were synthesized (Multiple Peptide Service, Cambridge Research Biochemicals, Cheshire, UK and Dept. Of Biochemistry, University of Bristol, UK), corresponding to the sequences of the 30 kD Rh proteins associated with expression of the RhD or RhcE/ce/Ce/CE blood group antigens respectively (Tables 1 to 5). An additional three peptide sequences is added to the panel of RhD peptides to account for the Ile to Met substitution described earlier (numbered from 69 to 71). The amino acid sequences for each of these proteins were deduced from cDNA analyses (FIG. 1). In order to ensure purity, each panel was synthesized by fluorenylmethoxycarbonyl chemistry on resin using a base-labile linker, rather than by conventional pin technology, and randomly selected peptides were screened for purity by HPLC and amino acid analysis.
Peripheral blood mononuclear cells (PBMC) from donors or patients were separated from fresh blood samples using Ficoll-Hypaque. The donors and patients had become alloimmunised with RhD-positive blood either through pregnancy, a blood transfusion or through immunization with the relevant blood.
(§1) PBMC were cultured in 100 μl volumes in microtitre plates at a concentration of 1.25×10^6 cells/ml in an Alpha Modification of Eagle's Medium (ICN Flow, Bucks UK) supplemented with 5% autologous serum, 4 mM L-Glutamine (Gibco, Paisley, UK), 100 U/ml sodium benzylpenicillin G (Sigma), 100 μg/ml streptomycin sulphate (Sigma), 5×10^−5M 2-mercaptoethanol (Sigma) and 20 mM HEPES pH7,2 (Sigma). All plates were incubated at 37° C. in a humidified atmosphere of 5% CO2/95% air. The cell proliferation in cultures was estimated from the incorporation of ^3H-Thymidine in triplicate wells 5 days after stimulation with antigen as described previously. Proliferation results are presented either as the mean CPM+/−SD of the triplicate samples, or as a stimulation index (SI), expressing the ratio of mean CPM in stimulated versus unstimulated control cultures. An S1>3 with CPM>1000 is interpreted as representing a positive response.
Turning to “CLPLWALTLEAALIL (Residues 12-26 RhD; listed as Homo sapiens) [peptide 2]”, the “proliferative T-cell response to RhD peptides” value is reported as “most commonly targeted”.
“FSLLGLLGEIIYIVL (Residue 332-346 RhD; listed as Homo sapiens) [compound 56]”: the “proliferative T-cell response to RhD peptides” value is recorded as “most commonly targeted”.
For the sequence “HSWSSVAFNLFMLAL (Residue 72-86 RhD; listed as Homo sapiens) [compound 10]”, the “proliferative T-cell response to RhD peptides” value is on record as “most commonly targeted”.
In the case of “LLTGLLLNLKIWKAP (Residue 382-396 RhD; listed as Homo sapiens) [compound 63]”, the “proliferative T-cell response to RhD peptides” value is listed as “most commonly targeted”.
For the sequence “SAVLAGGVAVGTSCH (Residue 272-286 RhD; listed as Homo sapiens) [peptide 46]”, the “proliferative T-cell response to RhD peptides” value is given as “most commonly targeted”.
As to “VTALGNLRMVISNIF (Residue 147 - 161 RhD; listed as Homo sapiens) [compound 22]”, the “proliferative T-cell response to RhD peptides” value is reported as “most commonly targeted”.

For the next assay, the system named is T-cells from AIHA patients. Briefly: Cell proliferation assay of PBMC/T-cells from autoimmune haemolytic anaemia patients. The assay is classed as cell-based, human. The settings on record: AIHA patients; FIG. 17A. As to the method: as §1
The experiments mentioned in Example 1.1 were repeated using blood from subjects suffering from autoimmune haemolytic anaemia.
These experiments can be carried out using other rhesus proteins, such as RhcE, Rhce, RhCe or RhCE protein. T-cells from RhD-negative subjects suffering AIHA were tested with the panel of ce peptides (Table 3).
“AALILLFYFFTHYDA (Residue 22- 36 RhD; listed as Homo sapiens) [compound 3]”: the “proliferative T-cell response to RhD peptides” value is on record as “exhibited a proliferative response”.
As to “ATIPSLSAMLGALFL (Residue 202-216 RhD; listed as Homo sapiens) [compound 33]”, the “proliferative T-cell response to RhD peptides” value is listed as “exhibited a proliferative response”.
On the same count and under the same terms, in the case of “CLPLWALTLEAALIL (Residues 12-26 RhD; listed as Homo sapiens) [peptide 2]” it was “exhibited a proliferative response”; in that of “GKVNLAQLVVMVLVE (Residue 132-146 RhD; listed as Homo sapiens) [compound 20]”, “exhibited a proliferative response”; in that of “GLISVGGAKYLPGCC (Residue 302-316 RhD; listed as Homo sapiens) [compound 50]”, “exhibited a proliferative response”.
Turning to “GTSCHLIPSPWLAMV (Residue 282-296 RhD; listed as Homo sapiens) [compound 47]”, the “proliferative T-cell response to RhD peptides” value is “exhibited a proliferative response”.
As to “LAIVIALTSGLLTGL (Residue 372-386 RhD; listed as Homo sapiens) [compound 62]”, the “proliferative T-cell response to RhD peptides” value is listed as “exhibited a proliferative response”.

Still in this assay, the particulars now being: RhD-negative AIHA subjects; FIG. 17B.
As to “FSLLGLLGEITYIVL (Residue 332-346 Rhce; listed as Homo sapiens) [compound 195]”, the “proliferative T-cell response to ce peptides” value was “exhibited a proliferative response”.
In the case of “GTSCHLIPSPWLAMV (Residue 282-296 Rhce; listed as Homo sapiens) [compound 186]”, the “proliferative T-cell response to ce peptides” value was “exhibited a proliferative response”.
In the case of “KGLVASYQVGQDLTV (Residue 42-56 Rhce; listed as Homo sapiens) [compound 144]”, the “proliferative T-cell response to ce peptides” value was “exhibited a proliferative response”.
In the case of “THYDASLEDQKGLVA (Residues 32-46 Rhce; listed as Homo sapiens) [compound 143]”, the “proliferative T-cell response to ce peptides” value is listed as “exhibited a proliferative response”.
For “TVAWCLPKPLPKGTE (Residue 182-196 Rhce; listed as Homo sapiens) [compound 168]”, the “proliferative T-cell response to ce peptides” value was “exhibited a proliferative response”.

Another assay concerns PBMC from RhD-alloimmunised donors. In words: celELISA of cytokine production (IL-10, TGF-β1) by PBMC from RhD alloimmunised donors. The assay is classed as cell-based, human. The settings on record: FIG. 3 and FIG. 10. As to the method: Cultured T-cells are stimulated with each of the epitopes given in Table 1 and after 5 days the responding cells were transferred to flat-bottomed microtitre plates (96-well Nunc-Immuno Maxisorp) coated with […] per well of monoclonal anti-cytokine capture antibody diluted in 0.05M alkaline carbonate coating buffer pH 9.6. Unbound capture antibody was removed by two washes with HBSS and non-specific binding potential blocked by incubation with 200 μl per well of phosphate buffered saline, pH 7.4 (PBS containing 3% BSA).
Five days after stimulation, lymphocyte cultures were mixed to resuspend the cells and duplicate 100 μl aliquots were transferred into wells coated with the respective capture antibody specific for IFN-γ, IL-10 or TGF-β. The plates coated with capture antibodies and layered by lymphocytes were then incubated for a further 24 hours at 37° C. in a humidified atmosphere of 5% CO2 and 95% air. After this incubation the PBMC were removed by four washes with 0.2% Tween/PBS. One hundred microlitre aliquots of the appropriate biotinylated monoclonal detection antibody in 0.2% BSA/PBS were then added to the wells and incubated at room temperature for 45 minutes.
After six washes with 0.5% Tween/PBS, 100 μl of 1:100,000 ExtrAvidin-alkaline phosphatase conjugate (Sigma) was then added to each of the wells and incubated at room temperature for 30 minutes. The ExtrAvidin conjugate was removed by eight washes with 0.2% Tween/PBS, and the plates developed using 100 μl per well of p-nitrophenyl phosphate (Sigma) 1.0 mg/ml in 0.05M carbonate alkaline buffer pH9.6. The absorbance at 405 nm was then measured using a Multiscan plate reader (Labsystems Basingstoke UK).
Cytokine secretion was measured by interpolation from a standard curve generated by incubating duplicate wells with doubling dilutions of recombinant human IFN-γ or IL-10 or TGF-β (Pharmingen). The standard curves were modelled by a smoothed cubic spline function applied to the absorbance reading and the cytokine concentrations after a quasilogarithmic transformation, where: quasiloge(z)=loge[z+{square root}[z^2+1]).
Using celELISA technique, the 68 RhD peptide panel was screened for the ability to induce IL-10 and TGF-β production for PBMC from a total of 19 samples from 12 different alloimmune donors. PMBC from 10 out of the 12 RhD-alloimmunised donors could produce IL-10 to at least one of the RhD peptides on at least one occasion, with a total of 194 significant IL-10 responses to the RhD peptides between all the donors. The RhD peptides that induced significant TGF-β or IL-10 and proliferative responses from PBMC in all the samples screened are summarised in FIGS. 10 and 11.
As for “FSLLGLLGEIIYIVL (Residue 332-346 RhD; listed as Homo sapiens) [compound 56]”, the “IL-10 production by PBMC” value was “commonly induce the production of IL-10”.
For the sequence “LGLVAGLISVGGAKY (Residue 297-311 RhD; listed as Homo sapiens) [compound 49]”, the “IL-10 production by PBMC” value is reported as “commonly induce the production of IL-10; also recorded: induce IL-10 production in the absence of a proliferative response or the production of IFN-γ or IL-4”.

The same assay, now with this note: FIG. 3 and FIG. 11.
In the case of “LGFLTSSFRRHSWSS (Residue 62-76 RhD; listed as Homo sapiens) [compound 8]”, the “TGF-β1 production by PBMC” value was “commonly induce the production of TGF-β1”.
On the same count and under the same terms, in the case of “WLAMVLGLVAGLISV (Residue 292-306 RhD; listed as Homo sapiens) [peptide 48]” it was “commonly induce the production of TGF-β1; also recorded: induces TGF-β1 production in the absence of a proliferative response or the production of IFN-γ or IL-4”.
